Results reported in ChEMBL document CHEMBL2021786, “The discovery of 2-fluoro-N-(3-fluoro-4-(5-((4-morpholinobutyl)amino)-1,3,4-oxadiazol-2-yl)phenyl)benzamide, a full agonist of the alpha-7 nicotinic acetylcholine receptor showing efficacy in the novel object recognition model of cognition enhancement” (Bioorg Med Chem Lett, 2012).
Values belong to the compound of their own block, whether it stands above or below them.

Columns and labels:
MDR1 = experiment: Intrinsic permeability of the compound in MDCK cells expressing MDR1; type: ADME, cell-based, Canis lupus familiaris; conditions: dog
[1] = Tmax in po dosed rat; type: ADME, organism-based; conditions: in vivo
Liver [2] = experiment: Clearance in rat liver assessed per gram of tissue; type: ADME, tissue-based; conditions: in vivo
Liver [3] = experiment: Clearance in human liver assessed per gram of tissue; type: ADME, tissue-based
[4] = Blood clearance in Sprague-Dawley rat at 1 mg/kg, iv; type: ADME, organism-based; parameters: dose 1 mg/kg, route intravenous
[5] = Half life in Sprague-Dawley rat at 1 mg/kg, iv; type: ADME, organism-based; parameters: dose 1 mg/kg, route intravenous; conditions: in vivo
[6] = Tmax in Sprague-Dawley rat at 3 mg/kg, po; type: ADME, organism-based; parameters: dose 3 mg/kg, route oral; conditions: in vivo
[7] = Oral bioavailability in Sprague-Dawley rat at 3 mg/kg; type: ADME, organism-based; conditions: in vivo
[8] = Ratio of drug level in brain to blood in CD1 mouse at 5 mg/kg, po after 3 hrs; type: ADME, organism-based; parameters: dose 5 mg/kg, route oral
[9] = Ratio of drug level in brain to blood in Lister Hooded rat at 3 mg/kg, po after 3 hrs; type: ADME, organism-based; parameters: dose 3 mg/kg, route oral
Blood = experiment: Drug level in novel object recognition model of rat blood at 0.1 mg/kg, po; type: ADME, organism-based; parameters: dose 0.1 mg/kg, route oral; conditions: in vivo, read-out: Drug uptake

SMILES: O=C(Nc1ccc(-c2nnc(NCCCN3CCN4CCC3CC4)o2)cc1)c1ccccc1F
- Papp (MDR1): 4.2 ×10⁻⁶ cm/s

SMILES: O=C(Nc1ccc(-c2nnc(NCCCCN3CCCCC3)o2)cc1)c1ccccc1F
- Papp (MDR1): 127 ×10⁻⁶ cm/s
- CLH (Liver [2]): < 0.5 mL/min/g
- CLH (Liver [3]): 0.5 mL/min/g
- clearance [4]: 42 mL/min/kg
- half-life [5]: 2.7 h
- Kp at 3 h [9]: 0.99

SMILES: O=C(Nc1ccc(-c2nnc(NCCCCN3CCCCC3)o2)cc1)c1ccccc1
- Papp (MDR1): 33.7 ×10⁻⁶ cm/s

SMILES: COc1cc(NC(=O)c2ccccc2F)ccc1-c1nnc(NCCCCN2CCCCC2)o1
- Papp (MDR1): 25.1 ×10⁻⁶ cm/s

SMILES: COc1cc(NC(=O)c2ccccc2F)ccc1-c1nnc(NCCCCN2CCOCC2)o1
- Papp (MDR1): 57.3 ×10⁻⁶ cm/s

SMILES: O=C(Nc1ccc(-c2nnc(NCCCCN3CCOCC3)o2)c(F)c1)c1ccccc1
- Papp (MDR1): 28.5 ×10⁻⁶ cm/s

SMILES: O=C(Nc1ccc(-c2nnc(NCCCCN3CCC(F)CC3)o2)cc1)c1ccccc1F
- Papp (MDR1): 70.3 ×10⁻⁶ cm/s

Second part, the compound after the results:

- Tmax [1]: 3 h
SMILES: COc1cc(NC(=O)c2ccccc2F)ccc1-c1nnc(NCCCN2CCCCC2)o1

- Papp (MDR1): 75.6 ×10⁻⁶ cm/s
- CLH (Liver [2]): 0.8 mL/min/g
- CLH (Liver [3]): < 0.5 mL/min/g
- clearance [4]: 37 mL/min/kg
- half-life [5]: 1.6 h
- Tmax [6]: 1 h
- bioavailability [7]: 22%
- Kp at 3 h [8]: 0.62
SMILES: O=C(Nc1ccc(-c2nnc(NCCCCN3CCOCC3)o2)cc1)c1ccccc1F

- Papp (MDR1): 9.8 ×10⁻⁶ cm/s
SMILES: O=C(Nc1ccc(-c2nnc(NCCCCN3CCCCC3)o2)cc1)C1CCCCC1

- Papp (MDR1): 73.6 ×10⁻⁶ cm/s
- CLH (Liver [2]): < 0.5 mL/min/g
- CLH (Liver [3]): < 0.5 mL/min/g
- clearance [4]: 54 mL/min/kg
- Tmax [6]: 1 h
- bioavailability [7]: 20%
- Kp at 3 h [8]: 0.53
- concentration (Blood): 10.5 nM
SMILES: O=C(Nc1ccc(-c2nnc(NCCCCN3CCOCC3)o2)c(F)c1)c1ccccc1F
